Results reported in US20060069120A1, “Novel piperidine derivaties as modulators of chemokine receptor ccr5” (priority 2002, published 2006).

target: recombinant human CCR5 receptor (Homo sapiens, UniProt P51681); experiment: MIP-1α radioligand binding assay (scintillation proximity); settings: displacement of 0.1 nM iodinated MIP-1α; membranes of Chinese hamster ovary cells expressing recombinant human CCR5; average if tested more than once
Protocol: The ability of compounds to inhibit the binding of MIP-1α was assessed by an in vitro radioligand binding assay. Membranes were prepared from Chinese hamster ovary cells which expressed the recombinant human CCR5 receptor. These membranes were incubated with 0.1 nM iodinated MIP-1α, scintillation proximity beads and various concentrations of the compounds of the invention in 96-well plates. The amount of iodinated MIP-1α bound to the receptor was determined by scintillation counting. Competition curves were obtained for compounds and the concentration of compound which displaced 50% of bound iodinated MIP-1α was calculated (IC50).
In Table IV the results are presented as Pic50 values. A Pic50 value is the negative log (to base 10) of the IC50 result, so an IC50 of 1 μM (that is 1×10^−6M) gives a Pic50 of 6. If a compound was tested more than once then the data below is an average of the probative tests results.

Sequence of recombinant human CCR5 receptor (P51681 whole entry): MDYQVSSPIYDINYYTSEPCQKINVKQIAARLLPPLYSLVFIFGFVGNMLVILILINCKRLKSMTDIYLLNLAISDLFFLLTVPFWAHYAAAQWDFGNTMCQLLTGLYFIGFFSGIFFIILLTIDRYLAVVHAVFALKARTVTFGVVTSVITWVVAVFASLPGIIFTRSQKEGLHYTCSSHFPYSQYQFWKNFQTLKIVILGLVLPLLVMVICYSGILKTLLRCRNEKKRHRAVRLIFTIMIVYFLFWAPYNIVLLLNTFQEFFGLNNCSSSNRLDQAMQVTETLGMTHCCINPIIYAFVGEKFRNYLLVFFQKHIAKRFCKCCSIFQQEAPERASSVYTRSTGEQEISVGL

| Structure (SMILES) | IC50 [nM] |
| --- | --- |
| CS(=O)(=O)c1ccc(NC(=O)CC2CCN(CCC(c3ccccc3)N3CCN(c4ccccc4)CC3)CC2)cc1 (centres unmarked) [Table I Compound 3] | 12 |
| CS(=O)(=O)c1ccc(NC(=O)CC2CCN(CCC(c3ccccc3)C3CCN(C(=O)c4ccc(Cl)cc4)CC3)CC2)cc1 (centres unmarked) [Table I Compound 5] | 1.32 |
| CS(=O)(=O)N1CCC(C(CCN2CCC(CC(=O)Nc3ccc(F)cc3)CC2)c2ccccc2)CC1 (centres unmarked) [Table I Compound 6] | 5.62 |

The remaining lines, values ahead:

| IC50 [nM] | Structure (SMILES) |
| --- | --- |
| 89.1 | CS(=O)(=O)c1ccc(CNC(=O)CCC2CCN(CCC(c3ccccc3)C3CCN(S(C)(=O)=O)CC3)CC2)cc1 (single isomer, unassigned) [Table V Compound 3] |
| 0.871 | CS(=O)(=O)c1ccc(NC(=O)CC2CCN(CC[C@@H](c3ccccc3)c3ccc(S(C)(=O)=O)cc3)CC2)cc1 [Table IV Compound 1, (S) N-(4-methanesulphonylphenyl)-1-[3-phenyl-3-(4-methanesulphonylphenyl)-propyl]piperidin-4-yl acetamide] |
